Measurements as given in patent US20210007356A1, “IMIDE DERIVATIVE AND FUNGICIDE CONTAINING SAID DERIVATIVE AS ACTIVE INGREDIENT” (HOKKO CHEMICAL INDUSTRY CO., LTD., priority 2018, published 2021).
Like-named read-outs stand apart in the source and are kept apart here.

What was measured:
[1] = system: rice sheath blight fungus (Thanatephorus cucumeris); assay: Test Example 8: control effect against rice sheath blight by box treatment (granule); details: 5 g of granule on nursery box, paddy rice; inoculated after 3 weeks; 7 days after inoculation
Excerpt: Control value (%)=[1−(lesion height in sprayed plot/lesion height in unsprayed plot)]×100 (d)
From the top of a nursery box, 5 g of a granule prepared according to Formulation Example-4 was applied to a 2.5-leaf-stage paddy rice (variety: Asahi) seedling raised using a nursery box ( 1/10 the area of standard nursery box in size: 12 cm×15 cm×height 4 cm) within a greenhouse. The formulation-treated paddy rice seedling was immediately transplanted at 5 seedlings/pot into a pot ( 1/10000 are in size) filled with paddy soil (flooded). After growing for 3 weeks within a greenhouse, a culture of rice sheath blight fungus (Thanatephorus cucumeris) grown in advance on a rice straw medium was inoculated into the root of the formulation-treated paddy rice, and disease development was promoted in an artificial weather chamber at 26° C. (relative humidity=100%). Seven days after the inoculation, the rice sheath blight lesion height (height from the root) was examined, and the control value (%) was calculated according to formula (d). […] This test was performed with three replications, each consisting of one plot and one pot, per one formulation plot, and its average evaluation value of control effect was determined.

[2] = system: rice sheath blight fungus (Thanatephorus cucumeris); assay: Test Example 6: control effect against rice sheath blight by box treatment (flowable formulation); details: flowable 5,000 ppm, 50 mL irrigation of nursery box, paddy rice; inoculated after 3 weeks; 7 days after inoculation
[3] = system: rice blast fungus (Pyricularia grisea); type: in vivo; details: flowable 5,000 ppm, 50 mL irrigation of nursery box, paddy rice; inoculated after 3 weeks; 7 days after inoculation
[4] = system: rice blast fungus (Pyricularia grisea); type: in vivo; details: flowable 1,000 ppm, 1 mL dripped in paddy water, inoculated after 1 week, 7 days after inoculation
[5] = system: rice blast fungus (Pyricularia grisea); type: in vivo; details: flowable diluted to 100 ppm, 10 mL per pot foliage spray on paddy rice; inoculated day after; 7 days after inoculation
[6] = system: rice blast fungus (Pyricularia grisea); type: in vivo; details: 5 g of granule on nursery box, paddy rice; inoculated after 3 weeks; 7 days after inoculation
[7] = system: barley powdery mildew fungus (Erysiphe graminis); assay: Test Example 2: control effect against barley powdery mildew by foliage application; type: in vivo; details: wettable powder diluted to 100 ppm, 10 mL per pot foliage spray on barley; inoculated day after; 7 days after inoculation
[8] = system: rice sheath blight fungus (Thanatephorus cucumeris); assay: Test Example 10: control effect against rice sheath blight by water surface application (flowable formulation); details: flowable 1,000 ppm, 1 mL dripped in paddy water, inoculated after 1 week, 7 days after inoculation

Cc1nc(C(F)F)c(C(=O)N(C(=O)c2sc(C)nc2C(F)F)c2ccccc2C(C)CC(C)C)s1 (centres unmarked) [7-238, 4-Difluoromethyl-N-{4-(difluoromethyl)-2-methyl-thiazole-5-carbonyl}-N-{2-(1,3-dimethylbutyl)phenyl}-2-methyl-thiazole-5-carboxamide]
5: evaluation value of control effect (from control value, lesion height) [1] | evaluation value of control effect (from control value, lesion height) [2] | evaluation value of control effect (from control value, number of lesions) [3] | evaluation value of control effect (from control value, number of lesions) [4] | evaluation value of control effect (from control value, number of lesions) [6] | evaluation value of control effect (from control value, lesion area percentage) [7] | evaluation value of control effect (from control value, lesion height) [8]
4: evaluation value of control effect (from control value, number of lesions) [5]

Cc1nc(C(F)F)c(C(=O)N(C(=O)c2scnc2C(F)F)c2ccccc2C(C)CC(C)C)s1 (centres unmarked) [7-262]
4: evaluation value of control effect (from control value, number of lesions) [5] | evaluation value of control effect (from control value, lesion area percentage) [7]
5: evaluation value of control effect (from control value, lesion height) [1] | evaluation value of control effect (from control value, lesion height) [2] | evaluation value of control effect (from control value, number of lesions) [3] | evaluation value of control effect (from control value, number of lesions) [4] | evaluation value of control effect (from control value, number of lesions) [6] | evaluation value of control effect (from control value, lesion height) [8]

CC(C)CC(C)c1ccccc1N(C(=O)c1cccnc1C(F)F)C(=O)c1snc(Cl)c1Cl (centres unmarked) [13-2, 3,4-Dichloro-N-{2-(difluoromethyl)pyridine-3-carbonyl}-N-{2-(1,3-dimethylbutyl)phenyl}isothiazole-5-carboxamide]
4: evaluation value of control effect (from control value, number of lesions) [5]
5: evaluation value of control effect (from control value, lesion height) [1] | evaluation value of control effect (from control value, lesion height) [2] | evaluation value of control effect (from control value, number of lesions) [3] | evaluation value of control effect (from control value, number of lesions) [4] | evaluation value of control effect (from control value, number of lesions) [6] | evaluation value of control effect (from control value, lesion area percentage) [7] | evaluation value of control effect (from control value, lesion height) [8]
111 to 115.6 °C: melting point

CC(C)CC(C)c1ccccc1N(C(=O)c1cccnc1Br)C(=O)c1snc(Cl)c1Cl (centres unmarked) [13-54]
5: evaluation value of control effect (from control value, lesion height) [1] | evaluation value of control effect (from control value, lesion height) [2] | evaluation value of control effect (from control value, number of lesions) [3] | evaluation value of control effect (from control value, number of lesions) [4] | evaluation value of control effect (from control value, number of lesions) [6] | evaluation value of control effect (from control value, lesion height) [8]
4: evaluation value of control effect (from control value, number of lesions) [5] | evaluation value of control effect (from control value, lesion area percentage) [7]

O=C(c1nccnc1C(F)(F)F)N(c1ccccc1-c1ccc(F)c(F)c1)c1snc(Cl)c1Cl [13-55, N-(3,4-Dichloroisothiazol-5-yl)-N-(3′,4′-difluorobiphen-2-yl)-3-(trifluoromethyl)pyrazine-2-carboxamide]
5: evaluation value of control effect (from control value, lesion height) [1] | evaluation value of control effect (from control value, lesion height) [2] | evaluation value of control effect (from control value, number of lesions) [3] | evaluation value of control effect (from control value, number of lesions) [4] | evaluation value of control effect (from control value, number of lesions) [6] | evaluation value of control effect (from control value, lesion area percentage) [7] | evaluation value of control effect (from control value, lesion height) [8]
4: evaluation value of control effect (from control value, number of lesions) [5]
136.1 to 139.2 °C: melting point

CC(C)CC(C)c1ccccc1N(C(=O)c1cc(F)nc(F)c1)C(=O)c1cccnc1C(F)F (centres unmarked) [13-58]
4: evaluation value of control effect (from control value, number of lesions) [5]
5: evaluation value of control effect (from control value, lesion height) [1] | evaluation value of control effect (from control value, lesion height) [2] | evaluation value of control effect (from control value, number of lesions) [3] | evaluation value of control effect (from control value, number of lesions) [4] | evaluation value of control effect (from control value, number of lesions) [6] | evaluation value of control effect (from control value, lesion area percentage) [7] | evaluation value of control effect (from control value, lesion height) [8]

CC1CC(C)(C)c2cccc(N(C(=O)c3cn(C)nc3C(F)F)C(=O)c3snc(Cl)c3Cl)c21 (centres unmarked) [25-4, 3,4-Dichloro-N-{3-(difluoromethyl)-1-methyl-pyrazole-4-carbonyl)-N-(2,3-dihydro-1,1,3-trimethyl-1H-inden-4-yl)-isothiazole-5-carboxamide]
4: evaluation value of control effect (from control value, lesion area percentage) [7]
5: evaluation value of control effect (from control value, lesion height) [1] | evaluation value of control effect (from control value, lesion height) [2] | evaluation value of control effect (from control value, lesion height) [8]
154.3 to 155.6 °C: melting point

Cc1nnsc1C(=O)N(C(=O)c1cn(C)nc1C(F)F)c1cccc2c1C(C)OC2(C)C (centres unmarked) [25-56]
5: evaluation value of control effect (from control value, lesion height) [1] | evaluation value of control effect (from control value, lesion height) [2] | evaluation value of control effect (from control value, number of lesions) [3] | evaluation value of control effect (from control value, number of lesions) [4] | evaluation value of control effect (from control value, number of lesions) [6] | evaluation value of control effect (from control value, lesion height) [8]
4: evaluation value of control effect (from control value, number of lesions) [5] | evaluation value of control effect (from control value, lesion area percentage) [7]

CC1OC(C)(C)c2cccc(N(C(=O)c3cn(C)nc3C(F)F)C(=O)c3snnc3C(F)F)c21 (centres unmarked) [25-68]
4: evaluation value of control effect (from control value, number of lesions) [5] | evaluation value of control effect (from control value, lesion area percentage) [7]
5: evaluation value of control effect (from control value, lesion height) [1] | evaluation value of control effect (from control value, lesion height) [2] | evaluation value of control effect (from control value, number of lesions) [3] | evaluation value of control effect (from control value, number of lesions) [4] | evaluation value of control effect (from control value, number of lesions) [6] | evaluation value of control effect (from control value, lesion height) [8]

CC1OC(C)(C)c2cccc(N(C(=O)c3cn(C)nc3C(F)F)C(=O)c3scnc3C(F)F)c21 (centres unmarked) [25-110]
5: evaluation value of control effect (from control value, lesion height) [1] | evaluation value of control effect (from control value, lesion height) [2] | evaluation value of control effect (from control value, number of lesions) [3] | evaluation value of control effect (from control value, number of lesions) [4] | evaluation value of control effect (from control value, number of lesions) [6] | evaluation value of control effect (from control value, lesion height) [8]
4: evaluation value of control effect (from control value, number of lesions) [5] | evaluation value of control effect (from control value, lesion area percentage) [7]

Cc1nn(C)c(Cl)c1C(=O)N(C(=O)c1snc(Cl)c1Cl)c1cccc2c1C(C)OC2(C)C (centres unmarked) [25-115, 3,4-Dichloro-N-(5-chloro-1,3-dimethyl-pyrazole-4-carbonyl)-N-(1,3-dihydro-1,1,3-trimethylisobenzofuran-4-yl)-isothiazole-5-carboxamide]
4: evaluation value of control effect (from control value, number of lesions) [5] | evaluation value of control effect (from control value, lesion area percentage) [7]
5: evaluation value of control effect (from control value, lesion height) [1] | evaluation value of control effect (from control value, lesion height) [2] | evaluation value of control effect (from control value, lesion height) [8]
165.5 to 170.3 °C: melting point

Cc1nc(C(F)F)c(C(=O)N(C(=O)c2snnc2C)c2cccc3c2C(C)OC3(C)C)s1 (centres unmarked) [26-50]
5: evaluation value of control effect (from control value, lesion height) [1] | evaluation value of control effect (from control value, lesion height) [2] | evaluation value of control effect (from control value, number of lesions) [3] | evaluation value of control effect (from control value, number of lesions) [4] | evaluation value of control effect (from control value, number of lesions) [6] | evaluation value of control effect (from control value, lesion height) [8]
4: evaluation value of control effect (from control value, number of lesions) [5] | evaluation value of control effect (from control value, lesion area percentage) [7]

Cc1nc(C(F)F)c(C(=O)N(C(=O)c2scnc2C(F)F)c2cccc3c2C(C)CC3(C)C)s1 (centres unmarked) [26-85]
4: evaluation value of control effect (from control value, number of lesions) [5]
5: evaluation value of control effect (from control value, lesion height) [1] | evaluation value of control effect (from control value, lesion height) [2] | evaluation value of control effect (from control value, number of lesions) [3] | evaluation value of control effect (from control value, number of lesions) [4] | evaluation value of control effect (from control value, number of lesions) [6] | evaluation value of control effect (from control value, lesion area percentage) [7] | evaluation value of control effect (from control value, lesion height) [8]
